# Results reported in patent US7951577B2, “Liquid crystals with reduced toxicity and applications thereof” (Wisconsin Alumni Research Foundation, priority 2003, dated 2011).
# Entries after “also recorded” stand apart in the source; their conditions may differ. Like-named read-outs stand apart in the source and are kept apart here.
# Columns and labels:
# [1] = system: SV-40 human corneal epithelial cells (HCEC); experiment: TRANSWELL assay, prolonged (24 hour) exposure to liquid crystal, Calcein-AM readout; format: cell-based; conditions: 50 μL liquid crystal in upper chamber, confluent and sub-confluent SV-40 HCEC
# Protocol: FIGS. 5A and 5B present the results of additional experiments to evaluate the toxicity of two different liquid crystals, 5CB and TL-205, following prolonged exposure to cells. For these experiments, TRANSWELL assays were carried out in which cell cultures were plated onto membranes in a TRANSWELL plate such that they were fed from below by liquid media while in continual contact with the liquid crystal, which was directly overlaid on the cells themselves. Briefly, SV-40 human corneal epithelial cells (HCEC) were grown in SHEM+10% fetal bovine serum. Cells were removed from T-75 tissue culture plates via trypsinization, and counted using a hemacytometer. Cells were plated onto TRANSWELL membranes (3 μm pore size, Corning, Inc., Corning, N.Y.) that allowed them to remain in contact with the liquid crystal as well as with the growth medium for 24 hours. Cells were plated at a concentration of 20,000 cells/well and allowed to grow. Some cells were tested at a density of confluence, approximately 45,000 cells (FIG. 5A), while another set was tested at a density of sub-confluence, approximately 30,000 cells/well (FIG. 5B). […] Calcein-AM was added to each well, and the cell fluorescence was measured to assess cell number. Fluorescence was read using a SYNERGY HT plate reader (Bio-Tek, Instruments, Inc., Winooksi, Vt.).
# [2] = system: SV-40 transformed human corneal epithelial cells (HCEC); format: cell-based; conditions: SV-40 HCEC, 4 hours under liquid crystal
# [3] = Viscosity of lyotropic liquid crystals; format: physicochemical; conditions: DSCG 9% wt, Triton 60% wt, Brij 50% wt, AMO 20% wt
# Protocol: Lyotropic liquid crystals were investigated for their biocompatibility and bio-inertness based on the following three criteria: (1) viscosity; (2) observed birefringence of the liquid crystal; and (3) protein binding activity when proteins are dissolved in the lyotropic liquid crystals. The stability of protein structure in the lyotropic liquid crystals is implicitly tested based on the evaluation of criterion (3). The binding activity of antibodies in the liquid crystal was tested by covalent attachment of an antibody to a solid surface and measurement of the binding of a fluorescently labeled antibody to the immobilized antibody.
# [4] = pH of DSCG in water; format: physicochemical
# [5] = system: vesicular stomatitis virus (VSV); format: cell-based; conditions: 1.5×10^7 pfu VSV, 1 hour at 37° C., supernatant titrated after 2 days
# [6] = system: HeLa cells
# Protocol: (§1) HeLa mammalian cell line (from human cervical cancer cells) were grown in poly-L-lysine (MW 30,000 to 70,000)-treated coverslips in a 12-well plate in MEM medium supplemented with 10% fetal bovine serum. HeLa cells were grown in tissue culture plates until the cells reached a confluency of 90 to 95% within 24 hrs and were maintained at 37° C. with 5% CO2.
# (§2) After incubation for less than one day, the DMEM was removed, the cells washed with PBS, 250 μl of the liquid crystal solution was overlaid.
# (§3) The overlaid cultures were incubated at 37° C. for 4 hours, at which time the liquid crystals were removed, the cells were washed with PBS, and 1 mL of medium DMEM was added back to the cells. The cells were then incubated in the medium at 37° C. for an additional 4 days and then evaluated for morphology and viability.
# [7] = system: Human IgG; experiment: Test of antibody binding in lyotropic liquid crystals (FITC anti-Human IgG to immobilized Human IgG); conditions: 200 nM FITC anti-Human IgG in liquid crystal (10% DSCG), 4 hours, room temperature
# [8] = system: vesicular stomatitis virus (VSV); format: cell-based; conditions: 2×10^7 pfu VSV, room temperature, 30 minutes, 1 hour or 4 hours
# [9] = system: HeLa cells; experiment: Effects of liquid crystals on HeLa cells (morphology and viability); conditions: DSCG in water; 30% (w/v) A3 in H2O; 21% (w/v) C14AO in H2O with 3% C10OH
# Protocol: as §1, §2, §3
Molecule,Viscosity [3],VSV growth after inoculation of HeLa cells in the presence of liquid crystal [5],antibody binding activity in the lyotropic liquid crystal (in words) [7],VSV infectivity after incubation of virus with liquid crystal [8],other results
"CCCCCc1ccc(-c2ccc(C#N)cc2)cc1 [5CB, 4-cyano-4′-pentylbiphenyl]",–,–,–,–,cell viability after prolonged exposure [1]: appears to kill cells; toxicity to cells (in words) [2]: toxic
"O=C(O)c1cc(=O)c2c(OCC(O)COc3cccc4oc(C(=O)O)cc(=O)c34)cccc2o1 [DSCG, disodium chromoglycate]",0.5-30 cp,VSV can infect cells in the presence of DSCG,FITC fluorescence was only found in the arrayed spots,VSV is stable in the presence of DSCG; also recorded: the concentration of the virus had not changed significantly,pH [4]: < 6; HeLa cells after liquid crystal removed and medium added back [6]: proliferated well after the medium was added; appearance of HeLa cells during contact with liquid crystal [6]: cells rounded up and detached from the surface
Laurate,1-100 cp,–,interfered with antibody binding activities,–,–
COCCOCCOCCOCc1c(C)c(COCCOCCOCCOC)c(C)c(COCCOCCOCCOC)c1C [A3],–,no growth of VSV was observed,–,no growth of VSV was observed,appearance of HeLa cells during contact with liquid crystal [9]: cell membranes started to show a rough appearance (blebbing) and the nuclei condensed
"CCCCCCCCCCCCCC[N+](C)(C)[O-] [AMO, tetradecyldimethylamineoxide]",50-200 cp,–,preserve specific antibody binding activity,–,–
Triton,>100 cp,–,interfered with antibody binding activities,–,–
